Test results from ChEMBL document CHEMBL3102722, “Diarylacylhydrazones: Clostridium-selective antibacterials with activity against stationary-phase cells” (Bioorg Med Chem Lett, 2014).
In brackets after ≈: the same amount, converted by molar mass. Activity calls are given as the source filed them. The rule behind the calls is not given here.

Key:
Enterococcus faecalis = experiment: Antibacterial activity against Enterococcus faecalis ATCC 47077 assessed as growth inhibition after 20 to 24 hrs; type: functional
Staphylococcus aureus = experiment: Antibacterial activity against Staphylococcus aureus 8325-4 assessed as growth inhibition after 20 to 24 hrs; type: functional
Bifidobacterium longum = experiment: Antibacterial activity against Bifidobacterium longum ATCC BAA-999 assessed as growth inhibition after 20 to 24 hrs; type: functional
Streptococcus mutans = experiment: Antibacterial activity against Streptococcus mutans ATCC 700610 assessed as growth inhibition after 20 to 24 hrs; type: functional
[1] = system: Bacteroides thetaiotaomicron; experiment: Antibacterial activity against Bacteroides thetaiotaomicron ATCC 29148 assessed as growth inhibition after 20 to 24 hrs; type: functional
Bacteroides fragilis = experiment: Antibacterial activity against Bacteroides fragilis ATCC 25285 assessed as growth inhibition after 20 to 24 hrs; type: functional; conditions: NCTC 9343
Lacticaseibacillus casei = experiment: Antibacterial activity against Lactobacillus casei ATCC 334 assessed as growth inhibition after 20 to 24 hrs; type: functional
Escherichia coli = experiment: Antibacterial activity against Escherichia coli ATCC 700927 assessed as growth inhibition after 20 to 24 hrs; type: functional
[2] = system: Limosilactobacillus reuteri; experiment: Antibacterial activity against Lactobacillus reuteri ATCC 23272 assessed as growth inhibition after 20 to 24 hrs; type: functional
Clostridioides difficile [3] = experiment: Antibacterial activity against Clostridium difficile CD196 assessed as growth inhibition after 20 to 24 hrs; type: functional
Clostridium perfringens = experiment: Antibacterial activity against Clostridium perfringens ATCC 13124 assessed as growth inhibition after 20 to 24 hrs; type: functional
[4] = Cytotoxicity against human HepG2 cells assessed as concentration required to decrease cell viability incubated for 24 hrs followed by compound washout measured after 18 hrs by resazurin dye-based assay; conditions: read-out: Activity
Clostridioides difficile [5] = experiment: Antibacterial activity against stationary phase of Clostridium difficile CD196 assessed as cell killing at 1 to 20 X MIC after 3 to 6 hrs; type: functional
FaDu = experiment: Cytotoxicity against human FADU cells assessed as concentration required to decrease cell viability incubated for 24 hrs followed by compound washout measured after 18 hrs by resazurin dye-based assay

Compound | MIC (Enterococcus faecalis) | MIC (Staphylococcus aureus) | MIC (Bifidobacterium longum) | MIC (Streptococcus mutans) | MIC [1] | MIC (Bacteroides fragilis) | MIC (Lacticaseibacillus casei) | MIC (Escherichia coli) | MIC [2] | MIC (Clostridioides difficile [3]) | MIC (Clostridium perfringens) | MCC at 24 h [4] | Activity (Clostridioides difficile [5]) | Activity (FaDu)
Cc1ccc(C(=O)N/N=C/c2ccc(O)c3ccccc23)cc1 | > 50 µg/mL | > 50 µg/mL | > 50 µg/mL | > 50 µg/mL | > 50 µg/mL | > 50 µg/mL | > 50 µg/mL | > 50 µg/mL | > 50 µg/mL | > 50 µg/mL | > 50 µg/mL | – | – | –
CC(=O)N/N=C/c1ccccc1 | – | – | – | – | – | – | – | – | – | > 50 µg/mL | – | – | – | –
O=[N+]([O-])c1ccc(O)c([N+](=O)[O-])c1 [2,4-DINITROPHENOL] | > 50 µg/mL | 25 µg/mL (≈ 136 µM) | 25 µg/mL (≈ 136 µM) | > 50 µg/mL | 25 µg/mL (≈ 136 µM) | 12.5 µg/mL (≈ 67.9 µM) | > 50 µg/mL | > 50 µg/mL | > 50 µg/mL | 50 µg/mL (≈ 272 µM) | > 50 µg/mL | – | – | –
Cc1ccc(C(=O)N/N=C/c2cccc3ccccc23)cc1 | > 50 µg/mL | > 50 µg/mL | > 50 µg/mL | > 50 µg/mL | > 50 µg/mL | > 50 µg/mL | > 50 µg/mL | > 50 µg/mL | > 50 µg/mL | > 50 µg/mL | > 50 µg/mL | – | – | –
O/N=C/c1c(O)ccc2ccccc12 | – | – | – | – | – | – | – | – | – | > 50 µg/mL | – | – | – | –
O=C(NNC(=O)c1ccc(-c2ccccc2)cc1)c1ccc(-c2ccccc2)cc1 | – | – | – | – | – | – | – | – | – | > 50 µg/mL | – | – | – | –
COc1cccc(/C=N/NC(=O)c2cc(C)n[nH]2)c1O | > 50 µg/mL | > 50 µg/mL | > 50 µg/mL | > 50 µg/mL | > 50 µg/mL | > 50 µg/mL | > 50 µg/mL | > 50 µg/mL | > 50 µg/mL | > 50 µg/mL | > 50 µg/mL | – | – | –
Oc1ccc2ccccc2c1/C=N/Nc1ccccc1 | – | – | – | – | – | – | – | – | – | > 50 µg/mL | – | – | – | –
Cc1cc(C(=O)N/N=C/c2cccc3ccccc23)[nH]n1 | > 50 µg/mL | > 50 µg/mL | > 50 µg/mL | > 50 µg/mL | > 50 µg/mL | > 50 µg/mL | > 50 µg/mL | > 50 µg/mL | > 50 µg/mL | > 50 µg/mL | > 50 µg/mL | – | – | –
O=C(N/N=C/c1c(O)ccc2ccccc12)c1cc([N+](=O)[O-])cc([N+](=O)[O-])c1 | – | – | – | – | – | – | – | – | – | > 50 µg/mL | – | – | – | –
O=C(N/N=C/c1c(O)ccc2ccccc12)c1cccc(Br)c1 | – | – | – | – | – | – | – | – | – | 6.25 µg/mL (≈ 16.9 µM) | – | – | – | –
O=C(N/N=C/c1c(O)ccc2ccccc12)c1ccccc1 | – | – | – | – | – | – | – | – | – | 6.25 µg/mL (≈ 21.5 µM) | – | – | – | –
N#CC(C#N)=NNc1cccc(Cl)c1 [CARBONYL CYANIDE M-CHLOROPHENYLHYDRAZONE] | > 50 µg/mL | > 50 µg/mL | 3.25 µg/mL (≈ 15.9 µM) | > 50 µg/mL | > 50 µg/mL | > 50 µg/mL | > 50 µg/mL | > 50 µg/mL | > 50 µg/mL | 1.56 µg/mL (≈ 7.62 µM) | > 50 µg/mL | 50 µg/mL | Active | 50 µg/mL
COc1cccc(/C=N/NC(=O)c2cc(C)nc3ccc(Br)cc23)c1 | > 50 µg/mL | > 50 µg/mL | > 50 µg/mL | > 50 µg/mL | > 50 µg/mL | > 50 µg/mL | > 50 µg/mL | > 50 µg/mL | > 50 µg/mL | > 50 µg/mL | > 50 µg/mL | – | – | –
O=C(NCc1ccccc1)c1ccc(-c2ccccc2)cc1 | – | – | – | – | – | – | – | – | – | > 50 µg/mL | – | – | – | –
COc1cccc(/C=N/NC(=O)c2ccc(C)cc2)c1O | > 50 µg/mL | > 50 µg/mL | > 50 µg/mL | 1.56 µg/mL (≈ 5.49 µM) | > 50 µg/mL | > 50 µg/mL | > 50 µg/mL | > 50 µg/mL | > 50 µg/mL | 12.5 µg/mL (≈ 44 µM) | 6.25 µg/mL (≈ 22 µM) | – | – | –
COc1ccc2ccccc2c1/C=N/NC(=O)c1ccc(C)cc1 | > 50 µg/mL | > 50 µg/mL | > 50 µg/mL | > 50 µg/mL | > 50 µg/mL | > 50 µg/mL | > 50 µg/mL | > 50 µg/mL | > 50 µg/mL | > 50 µg/mL | > 50 µg/mL | – | – | –

Compound | MIC (Enterococcus faecalis) | MIC (Staphylococcus aureus) | MIC (Bifidobacterium longum) | MIC (Streptococcus mutans) | MIC [1] | MIC (Bacteroides fragilis) | MIC (Lacticaseibacillus casei) | MIC (Escherichia coli) | MIC [2] | MIC (Clostridioides difficile [3]) | MIC (Clostridium perfringens) | MCC at 24 h [4] | Activity (Clostridioides difficile [5]) | Activity (FaDu)
O=C(CO)N/N=C/c1cccc2ccccc12 | – | – | – | – | – | – | – | – | – | > 50 µg/mL | – | – | – | –
Cc1cc(C(=O)N/N=C/c2c(O)ccc3ccccc23)c2cc(Br)ccc2n1 | > 50 µg/mL | > 50 µg/mL | > 50 µg/mL | > 50 µg/mL | > 50 µg/mL | > 50 µg/mL | > 50 µg/mL | > 50 µg/mL | > 50 µg/mL | > 50 µg/mL | 25 µg/mL (≈ 57.6 µM) | – | – | –
O=C(N/N=C/c1c(O)ccc2ccccc12)c1ccc(Cl)cc1 | > 50 µg/mL | > 50 µg/mL | > 50 µg/mL | > 50 µg/mL | 12.5 µg/mL (≈ 38.5 µM) | 12.5 µg/mL (≈ 38.5 µM) | > 50 µg/mL | > 50 µg/mL | > 50 µg/mL | 6.25 µg/mL (≈ 19.2 µM) | ≤ 0.78 µg/mL | – | – | –
Cc1ccc(C(=O)N(C)/N=C/c2c(O)ccc3ccccc23)cc1 | > 50 µg/mL | > 50 µg/mL | > 50 µg/mL | > 50 µg/mL | > 50 µg/mL | > 50 µg/mL | > 50 µg/mL | > 50 µg/mL | > 50 µg/mL | > 50 µg/mL | > 50 µg/mL | – | – | –
O=C(N/N=C/c1c(OCc2cccc(Br)c2)ccc2ccccc12)c1ccccc1 | – | – | – | – | – | – | – | – | – | > 50 µg/mL | – | – | – | –
Cc1cccc(/C=N/NC(=O)c2ccc(-c3ccccc3)cc2)c1 | – | – | – | – | – | – | – | – | – | > 50 µg/mL | – | – | – | –
O=C(N/N=C/c1c(O)ccc2ccccc12)c1cccc([N+](=O)[O-])c1 | – | – | – | – | – | – | – | – | – | > 50 µg/mL | – | – | – | –
COc1cccc(/C=N/NC(=O)c2cc(C)nc3ccc(Br)cc23)c1O | > 50 µg/mL | > 50 µg/mL | > 50 µg/mL | > 50 µg/mL | > 50 µg/mL | > 50 µg/mL | > 50 µg/mL | > 50 µg/mL | > 50 µg/mL | 6.25 µg/mL (≈ 15.1 µM) | 6.25 µg/mL (≈ 15.1 µM) | – | – | –
O=C(N/N=C/c1c(O)ccc2ccccc12)c1cc2ccccc2cc1O | – | – | – | – | – | – | – | – | – | 12.5 µg/mL (≈ 35.1 µM) | – | – | – | –
Cc1cc(C(=O)N/N=C/c2ccc([N+](=O)[O-])o2)[nH]n1 | 12.5 µg/mL (≈ 47.5 µM) | 1.56 µg/mL (≈ 5.93 µM) | ≤ 0.78 µg/mL | 1.56 µg/mL (≈ 5.93 µM) | ≤ 3.13 µg/mL | ≤ 3.13 µg/mL | 6.25 µg/mL (≈ 23.7 µM) | 12.5 µg/mL (≈ 47.5 µM) | 12.5 µg/mL (≈ 47.5 µM) | 0.78 µg/mL (≈ 2.96 µM) | ≤ 12.5 µg/mL | – | – | –
Cc1ncc([N+](=O)[O-])n1CCO [METRONIDAZOLE] | > 50 µg/mL | > 50 µg/mL | ≤ 0.78 µg/mL | > 50 µg/mL | ≤ 0.78 µg/mL | ≤ 0.78 µg/mL | > 50 µg/mL | > 50 µg/mL | > 50 µg/mL | 1.56 µg/mL (≈ 9.11 µM) | 3.13 µg/mL (≈ 18.3 µM) | > 200 µg/mL | inactive | > 200 µg/mL
NC(=O)N/N=C/c1c(O)ccc2ccccc12 | – | – | – | – | – | – | – | – | – | > 50 µg/mL | – | – | – | –
Oc1c(Cl)c(Cl)c(Cl)c(Cl)c1Cl [PENTACHLOROPHENOL] | > 50 µg/mL | < 0.78 µg/mL | 12.5 µg/mL (≈ 46.9 µM) | 25 µg/mL (≈ 93.9 µM) | 6.25 µg/mL (≈ 23.5 µM) | 6.25 µg/mL (≈ 23.5 µM) | 50 µg/mL (≈ 188 µM) | > 50 µg/mL | 50 µg/mL (≈ 188 µM) | 50 µg/mL (≈ 188 µM) | 6.25 µg/mL (≈ 23.5 µM) | – | – | –
COc1ccc2ccccc2c1/C=N/N(C)C(=O)c1ccc(C)cc1 | > 50 µg/mL | > 50 µg/mL | > 50 µg/mL | > 50 µg/mL | > 50 µg/mL | > 50 µg/mL | > 50 µg/mL | > 50 µg/mL | > 50 µg/mL | > 50 µg/mL | > 50 µg/mL | – | – | –
O=C(N/N=C/c1c(O)ccc2ccccc12)c1ccc([N+](=O)[O-])cc1 | – | – | – | – | – | – | – | – | – | > 50 µg/mL | – | – | – | –
Clc1ccc(COC(Cn2ccnc2)c2ccc(Cl)cc2Cl)c(Cl)c1 (stereo not given) [MICONAZOLE] | – | – | – | – | – | – | – | – | – | – | – | 50 µg/mL | – | 50 µg/mL
